The target in the first test is MAP2K1 (human) (UniProt Q02750). In words: radiometric filter-binding kinase assay, Kinase HotSpot. The following applies: compound 0.5 µM; ATP 10 µM.
Chain of MAP2K1 (human) (Q02750 whole entry, looked up): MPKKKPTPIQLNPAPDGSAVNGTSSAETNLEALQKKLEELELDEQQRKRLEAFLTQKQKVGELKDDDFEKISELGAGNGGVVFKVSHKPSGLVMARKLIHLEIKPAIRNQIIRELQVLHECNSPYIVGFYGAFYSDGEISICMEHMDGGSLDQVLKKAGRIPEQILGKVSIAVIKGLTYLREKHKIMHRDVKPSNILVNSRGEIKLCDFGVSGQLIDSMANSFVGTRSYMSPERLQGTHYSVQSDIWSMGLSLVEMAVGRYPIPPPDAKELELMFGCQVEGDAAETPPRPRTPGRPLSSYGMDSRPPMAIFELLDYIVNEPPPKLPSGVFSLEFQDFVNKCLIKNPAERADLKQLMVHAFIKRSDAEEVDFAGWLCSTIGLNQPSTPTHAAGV
Chain of NUAK2 (human) (Q9H093 whole entry, looked up): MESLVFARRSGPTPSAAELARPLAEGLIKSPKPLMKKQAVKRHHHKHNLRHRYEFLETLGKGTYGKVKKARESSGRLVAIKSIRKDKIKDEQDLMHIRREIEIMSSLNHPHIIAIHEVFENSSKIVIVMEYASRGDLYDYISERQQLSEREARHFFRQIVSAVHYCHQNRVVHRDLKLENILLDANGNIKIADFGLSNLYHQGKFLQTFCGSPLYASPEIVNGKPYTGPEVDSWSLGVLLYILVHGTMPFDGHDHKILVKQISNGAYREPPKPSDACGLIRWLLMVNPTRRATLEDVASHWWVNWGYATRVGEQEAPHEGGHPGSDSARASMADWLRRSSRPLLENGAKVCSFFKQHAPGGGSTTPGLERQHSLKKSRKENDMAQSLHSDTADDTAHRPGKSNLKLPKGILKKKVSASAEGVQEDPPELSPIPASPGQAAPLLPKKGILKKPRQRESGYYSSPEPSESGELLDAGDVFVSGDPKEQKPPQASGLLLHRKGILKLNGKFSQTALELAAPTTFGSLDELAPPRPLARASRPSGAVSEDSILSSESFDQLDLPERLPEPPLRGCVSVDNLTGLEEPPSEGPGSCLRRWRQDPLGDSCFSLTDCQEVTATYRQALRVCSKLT
One may read the residual activity as the signal under treatment as a percentage of the control signal. In the case of `O=C1NC(=O)/C(=C\c2ccc3nccnc3c2)S1`, the residual activity amounted to 89.5%.
On the same count and under the same terms, under `CC(C)c1nn(-c2c(Cl)cccc2Cl)c2nc(Cc3ccc(OCCO)cc3)nc(O)c12` stands 99.7%; under `CN([C@@H](Cc1ccc(OS(=O)(=O)c2cccc3cnccc23)cc1)C(=O)N1CCN(c2ccccc2)CC1)S(=O)(=O)c1cccc2cnccc12`, 75.3%.

In a further test the target is SGK3 (human) (UniProt Q96BR1). The description is as above. The following applies: compound 0.5 µM; ATP 10 µM.
For `O=C1NC(=O)/C(=C\c2ccc3nccnc3c2)S1`, the residual activity came to 94.3%.
On the same count and under the same terms, the result for `CC(C)c1nn(-c2c(Cl)cccc2Cl)c2nc(Cc3ccc(OCCO)cc3)nc(O)c12` reads 92.6%; that for `CN([C@@H](Cc1ccc(OS(=O)(=O)c2cccc3cnccc23)cc1)C(=O)N1CCN(c2ccccc2)CC1)S(=O)(=O)c1cccc2cnccc12`, 104%.

In another test the target is RET (human) (UniProt P07949). The test is described as above. The following applies: compound 0.5 µM; ATP 10 µM.
Consider `O=C1NC(=O)/C(=C\c2ccc3nccnc3c2)S1`, for which the residual activity was 97.7%.
On the same count and under the same terms, under `CC(C)c1nn(-c2c(Cl)cccc2Cl)c2nc(Cc3ccc(OCCO)cc3)nc(O)c12` stands 97.5%; under `CN([C@@H](Cc1ccc(OS(=O)(=O)c2cccc3cnccc23)cc1)C(=O)N1CCN(c2ccccc2)CC1)S(=O)(=O)c1cccc2cnccc12`, 105%.

A further test has as its target FGFR4 (human) (UniProt P22455). The description is as above. Particulars: compound 0.5 µM; ATP 10 µM.
`O=C1NC(=O)/C(=C\c2ccc3nccnc3c2)S1`: the residual activity is 98%.
The same measure, in the same setting: under `CC(C)c1nn(-c2c(Cl)cccc2Cl)c2nc(Cc3ccc(OCCO)cc3)nc(O)c12` stands 91.5%; under `CN([C@@H](Cc1ccc(OS(=O)(=O)c2cccc3cnccc23)cc1)C(=O)N1CCN(c2ccccc2)CC1)S(=O)(=O)c1cccc2cnccc12`, 110%.

The target of the next test is MAPK3 (human) (UniProt P27361). The test is described as above. Particulars: compound 0.5 µM; ATP 10 µM.
Regarding `O=C1NC(=O)/C(=C\c2ccc3nccnc3c2)S1`, the residual activity was determined as 87.8%.
Same read-out and setting: the result for `CC(C)c1nn(-c2c(Cl)cccc2Cl)c2nc(Cc3ccc(OCCO)cc3)nc(O)c12` reads 101%.
Same read-out and setting: under `CN([C@@H](Cc1ccc(OS(=O)(=O)c2cccc3cnccc23)cc1)C(=O)N1CCN(c2ccccc2)CC1)S(=O)(=O)c1cccc2cnccc12` stands 90.6%.

For the next test, the target named is MAPKAPK3 (human) (UniProt Q16644). The description is as above. Particulars: compound 0.5 µM; ATP 10 µM.
Chain of MAPKAPK3 (human) (Q16644 whole entry, looked up): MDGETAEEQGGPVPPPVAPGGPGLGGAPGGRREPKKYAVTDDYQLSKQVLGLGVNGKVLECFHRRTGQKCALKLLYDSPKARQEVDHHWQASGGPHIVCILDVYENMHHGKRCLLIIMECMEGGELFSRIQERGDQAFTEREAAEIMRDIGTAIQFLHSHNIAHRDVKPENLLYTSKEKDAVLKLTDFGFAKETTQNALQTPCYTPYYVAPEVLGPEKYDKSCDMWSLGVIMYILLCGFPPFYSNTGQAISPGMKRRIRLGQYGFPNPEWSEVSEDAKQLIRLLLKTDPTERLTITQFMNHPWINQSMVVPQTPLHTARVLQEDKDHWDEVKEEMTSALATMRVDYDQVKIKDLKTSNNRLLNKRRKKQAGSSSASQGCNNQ
For the molecule `O=C1NC(=O)/C(=C\c2ccc3nccnc3c2)S1`, the residual activity was found to be 104%.
On the same count and under the same terms, under `CC(C)c1nn(-c2c(Cl)cccc2Cl)c2nc(Cc3ccc(OCCO)cc3)nc(O)c12` stands 89.2%.
The same measure, in the same setting: the result for `CN([C@@H](Cc1ccc(OS(=O)(=O)c2cccc3cnccc23)cc1)C(=O)N1CCN(c2ccccc2)CC1)S(=O)(=O)c1cccc2cnccc12` reads 101%.

The target of the next test is NTRK3 (human) (UniProt Q16288). The test is described as above. The following applies: compound 0.5 µM; ATP 10 µM.
Regarding `O=C1NC(=O)/C(=C\c2ccc3nccnc3c2)S1`, the residual activity was 95.3%.
Still for that read-out and setting: under `CC(C)c1nn(-c2c(Cl)cccc2Cl)c2nc(Cc3ccc(OCCO)cc3)nc(O)c12` stands 90.5%.
Same read-out and setting: the result for `CN([C@@H](Cc1ccc(OS(=O)(=O)c2cccc3cnccc23)cc1)C(=O)N1CCN(c2ccccc2)CC1)S(=O)(=O)c1cccc2cnccc12` reads 97.5%.

The target in a further test is GRK5 (human) (UniProt P34947). Described as above. The following applies: compound 0.5 µM; ATP 10 µM.
Chain of GRK5 (human) (P34947 whole entry, looked up): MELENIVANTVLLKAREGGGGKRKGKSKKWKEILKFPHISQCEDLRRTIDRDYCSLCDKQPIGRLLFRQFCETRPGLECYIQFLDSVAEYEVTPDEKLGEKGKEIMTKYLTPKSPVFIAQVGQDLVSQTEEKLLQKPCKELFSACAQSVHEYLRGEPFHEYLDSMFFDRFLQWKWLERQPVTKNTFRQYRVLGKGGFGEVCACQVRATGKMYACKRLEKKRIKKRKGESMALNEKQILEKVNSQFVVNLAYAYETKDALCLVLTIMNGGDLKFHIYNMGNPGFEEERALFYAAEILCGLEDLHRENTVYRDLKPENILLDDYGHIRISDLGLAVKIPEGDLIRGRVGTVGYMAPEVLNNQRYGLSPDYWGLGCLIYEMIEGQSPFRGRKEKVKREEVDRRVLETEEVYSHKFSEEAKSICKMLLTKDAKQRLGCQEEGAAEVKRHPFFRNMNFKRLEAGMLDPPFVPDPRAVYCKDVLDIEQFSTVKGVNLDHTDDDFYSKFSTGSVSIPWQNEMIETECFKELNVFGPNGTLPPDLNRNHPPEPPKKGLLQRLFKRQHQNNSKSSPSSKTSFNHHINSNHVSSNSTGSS
For `O=C1NC(=O)/C(=C\c2ccc3nccnc3c2)S1`, the residual activity amounted to 105%.
Still for that read-out and setting: the result for `CC(C)c1nn(-c2c(Cl)cccc2Cl)c2nc(Cc3ccc(OCCO)cc3)nc(O)c12` reads 108%; that for `CN([C@@H](Cc1ccc(OS(=O)(=O)c2cccc3cnccc23)cc1)C(=O)N1CCN(c2ccccc2)CC1)S(=O)(=O)c1cccc2cnccc12`, 95.6%.

The next test deals with CSNK1E (human) (UniProt P49674). The test is described as above. Particulars: compound 0.5 µM; ATP 10 µM.
Take `O=C1NC(=O)/C(=C\c2ccc3nccnc3c2)S1`: the residual activity came to 92.3%.
For `CC(C)c1nn(-c2c(Cl)cccc2Cl)c2nc(Cc3ccc(OCCO)cc3)nc(O)c12`, the residual activity was 83.6%.
The same measure, in the same setting: under `CN([C@@H](Cc1ccc(OS(=O)(=O)c2cccc3cnccc23)cc1)C(=O)N1CCN(c2ccccc2)CC1)S(=O)(=O)c1cccc2cnccc12` stands 103%.

A further test has as its target STK3 (human) (UniProt Q13188). The description is as above. The following applies: compound 0.5 µM; ATP 10 µM.
On to `O=C1NC(=O)/C(=C\c2ccc3nccnc3c2)S1`, for which the residual activity came to 104%.
Same read-out and setting: the result for `CC(C)c1nn(-c2c(Cl)cccc2Cl)c2nc(Cc3ccc(OCCO)cc3)nc(O)c12` reads 93.5%; that for `CN([C@@H](Cc1ccc(OS(=O)(=O)c2cccc3cnccc23)cc1)C(=O)N1CCN(c2ccccc2)CC1)S(=O)(=O)c1cccc2cnccc12`, 98.8%.

The target in the next test is CHEK2 (human) (UniProt O96017). The test is described as above. Particulars: compound 0.5 µM; ATP 10 µM.
`O=C1NC(=O)/C(=C\c2ccc3nccnc3c2)S1`: the residual activity is 90.3%.
Same read-out and setting: under `CC(C)c1nn(-c2c(Cl)cccc2Cl)c2nc(Cc3ccc(OCCO)cc3)nc(O)c12` stands 98.8%; under `CN([C@@H](Cc1ccc(OS(=O)(=O)c2cccc3cnccc23)cc1)C(=O)N1CCN(c2ccccc2)CC1)S(=O)(=O)c1cccc2cnccc12`, 101%.

In another test the target is RPS6KB1 (human) (UniProt P23443). The description is as above. Particulars: compound 0.5 µM; ATP 10 µM.
Chain of RPS6KB1 (human) (P23443 whole entry, looked up): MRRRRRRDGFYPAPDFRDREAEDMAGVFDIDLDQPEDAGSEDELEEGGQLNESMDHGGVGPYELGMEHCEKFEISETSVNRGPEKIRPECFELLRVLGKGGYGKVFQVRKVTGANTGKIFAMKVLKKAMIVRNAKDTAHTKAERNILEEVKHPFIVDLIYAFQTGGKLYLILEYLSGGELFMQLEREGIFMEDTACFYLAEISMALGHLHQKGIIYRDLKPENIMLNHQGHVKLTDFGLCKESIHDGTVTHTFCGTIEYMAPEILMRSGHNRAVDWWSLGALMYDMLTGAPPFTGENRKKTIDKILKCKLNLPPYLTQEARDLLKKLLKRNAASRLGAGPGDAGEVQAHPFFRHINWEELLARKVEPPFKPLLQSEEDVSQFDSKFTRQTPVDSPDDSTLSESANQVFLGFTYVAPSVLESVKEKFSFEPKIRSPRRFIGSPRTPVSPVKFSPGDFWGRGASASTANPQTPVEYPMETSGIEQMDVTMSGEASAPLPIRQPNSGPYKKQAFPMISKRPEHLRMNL
As to `O=C1NC(=O)/C(=C\c2ccc3nccnc3c2)S1`, the residual activity was 91.2%.
Still for that read-out and setting: the result for `CC(C)c1nn(-c2c(Cl)cccc2Cl)c2nc(Cc3ccc(OCCO)cc3)nc(O)c12` reads 94.8%; that for `CN([C@@H](Cc1ccc(OS(=O)(=O)c2cccc3cnccc23)cc1)C(=O)N1CCN(c2ccccc2)CC1)S(=O)(=O)c1cccc2cnccc12`, 101%.

For another test, the target named is AXL (human) (UniProt P30530). Described as above. Particulars: compound 0.5 µM; ATP 10 µM.
Chain of AXL (human) (P30530 whole entry, looked up): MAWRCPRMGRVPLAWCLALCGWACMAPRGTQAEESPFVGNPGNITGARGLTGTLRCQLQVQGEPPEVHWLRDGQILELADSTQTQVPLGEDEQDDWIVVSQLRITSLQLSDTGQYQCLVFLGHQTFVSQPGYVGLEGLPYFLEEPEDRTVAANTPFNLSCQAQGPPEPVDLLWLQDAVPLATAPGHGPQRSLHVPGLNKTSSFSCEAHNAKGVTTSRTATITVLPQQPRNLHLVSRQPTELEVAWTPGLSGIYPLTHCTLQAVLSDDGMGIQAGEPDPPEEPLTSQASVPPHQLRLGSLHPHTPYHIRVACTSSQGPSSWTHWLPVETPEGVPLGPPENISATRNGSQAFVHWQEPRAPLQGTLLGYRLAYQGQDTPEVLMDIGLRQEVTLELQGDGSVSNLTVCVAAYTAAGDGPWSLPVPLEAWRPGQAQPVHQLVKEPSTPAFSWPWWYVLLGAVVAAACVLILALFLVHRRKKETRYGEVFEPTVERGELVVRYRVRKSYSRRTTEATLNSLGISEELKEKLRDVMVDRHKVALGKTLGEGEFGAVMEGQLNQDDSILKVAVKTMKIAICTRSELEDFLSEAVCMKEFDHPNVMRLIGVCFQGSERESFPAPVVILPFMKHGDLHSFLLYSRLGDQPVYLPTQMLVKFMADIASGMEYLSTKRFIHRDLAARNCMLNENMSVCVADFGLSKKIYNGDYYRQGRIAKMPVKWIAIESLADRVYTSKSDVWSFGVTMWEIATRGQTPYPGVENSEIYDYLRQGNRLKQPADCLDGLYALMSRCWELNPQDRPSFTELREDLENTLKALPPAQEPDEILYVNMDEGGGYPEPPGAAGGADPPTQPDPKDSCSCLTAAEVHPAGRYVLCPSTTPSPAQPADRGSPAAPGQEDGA
As to `O=C1NC(=O)/C(=C\c2ccc3nccnc3c2)S1`, the residual activity turned out to be 112%.
Still for that read-out and setting: the result for `CC(C)c1nn(-c2c(Cl)cccc2Cl)c2nc(Cc3ccc(OCCO)cc3)nc(O)c12` reads 98%; that for `CN([C@@H](Cc1ccc(OS(=O)(=O)c2cccc3cnccc23)cc1)C(=O)N1CCN(c2ccccc2)CC1)S(=O)(=O)c1cccc2cnccc12`, 103%.

For the next test, the target named is BRSK1 (human) (UniProt Q8TDC3). The description is as above. Particulars: compound 0.5 µM; ATP 10 µM.
Chain of BRSK1 (human) (Q8TDC3 whole entry, looked up): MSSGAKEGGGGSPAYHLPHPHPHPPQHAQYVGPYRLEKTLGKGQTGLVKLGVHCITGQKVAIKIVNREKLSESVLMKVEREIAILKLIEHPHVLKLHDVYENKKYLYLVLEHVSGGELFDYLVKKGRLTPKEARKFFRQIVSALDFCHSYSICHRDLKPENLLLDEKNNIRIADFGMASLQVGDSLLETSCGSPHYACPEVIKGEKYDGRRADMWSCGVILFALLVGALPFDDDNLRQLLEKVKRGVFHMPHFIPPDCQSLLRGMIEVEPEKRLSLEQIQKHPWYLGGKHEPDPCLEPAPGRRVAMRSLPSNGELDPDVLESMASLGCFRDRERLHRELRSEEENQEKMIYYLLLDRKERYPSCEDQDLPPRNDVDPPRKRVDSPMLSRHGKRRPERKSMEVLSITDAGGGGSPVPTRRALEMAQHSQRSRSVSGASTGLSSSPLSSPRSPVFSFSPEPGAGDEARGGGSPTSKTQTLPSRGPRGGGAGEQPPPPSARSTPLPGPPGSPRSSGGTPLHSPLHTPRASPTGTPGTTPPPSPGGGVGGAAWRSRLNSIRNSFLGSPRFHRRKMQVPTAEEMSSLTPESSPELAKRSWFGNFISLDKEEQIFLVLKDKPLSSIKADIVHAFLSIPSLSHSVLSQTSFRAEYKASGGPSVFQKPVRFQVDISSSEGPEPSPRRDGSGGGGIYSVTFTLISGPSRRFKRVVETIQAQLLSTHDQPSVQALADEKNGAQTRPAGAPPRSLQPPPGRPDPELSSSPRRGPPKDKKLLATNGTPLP
Regarding `O=C1NC(=O)/C(=C\c2ccc3nccnc3c2)S1`, the residual activity stood at 92.4%.
On the same count and under the same terms, under `CC(C)c1nn(-c2c(Cl)cccc2Cl)c2nc(Cc3ccc(OCCO)cc3)nc(O)c12` stands 91.3%; under `CN([C@@H](Cc1ccc(OS(=O)(=O)c2cccc3cnccc23)cc1)C(=O)N1CCN(c2ccccc2)CC1)S(=O)(=O)c1cccc2cnccc12`, 96.4%.

For another test, the target named is ADRBK2 (human) (UniProt P35626). The test is described as above. The following applies: compound 0.5 µM; ATP 10 µM.
Take `O=C1NC(=O)/C(=C\c2ccc3nccnc3c2)S1`: the residual activity came out at 111%.
In the case of `CC(C)c1nn(-c2c(Cl)cccc2Cl)c2nc(Cc3ccc(OCCO)cc3)nc(O)c12`, the residual activity was found to be 87.9%.
For the molecule `CN([C@@H](Cc1ccc(OS(=O)(=O)c2cccc3cnccc23)cc1)C(=O)N1CCN(c2ccccc2)CC1)S(=O)(=O)c1cccc2cnccc12`, the residual activity was found to be 113%.

In another test the target is LCK (human) (UniProt P06239). The description is as above. Particulars: compound 0.5 µM; ATP 10 µM.
For the molecule `O=C1NC(=O)/C(=C\c2ccc3nccnc3c2)S1`, the residual activity came out at 98.6%.
Still for that read-out and setting: the result for `CC(C)c1nn(-c2c(Cl)cccc2Cl)c2nc(Cc3ccc(OCCO)cc3)nc(O)c12` reads 88.6%; that for `CN([C@@H](Cc1ccc(OS(=O)(=O)c2cccc3cnccc23)cc1)C(=O)N1CCN(c2ccccc2)CC1)S(=O)(=O)c1cccc2cnccc12`, 97.5%.

For another test, the target named is NEK2 (human) (UniProt P51955). Described as above. The following applies: compound 0.5 µM; ATP 10 µM.
As for `O=C1NC(=O)/C(=C\c2ccc3nccnc3c2)S1`, the residual activity came out at 92.2%.
As for `CC(C)c1nn(-c2c(Cl)cccc2Cl)c2nc(Cc3ccc(OCCO)cc3)nc(O)c12`, the residual activity came out at 97.7%.
On to `CN([C@@H](Cc1ccc(OS(=O)(=O)c2cccc3cnccc23)cc1)C(=O)N1CCN(c2ccccc2)CC1)S(=O)(=O)c1cccc2cnccc12`, for which the residual activity stood at 87.4%.

A further test has as its target ULK2 (human) (UniProt Q8IYT8). The description is as above. Particulars: compound 0.5 µM; ATP 10 µM.
On to `O=C1NC(=O)/C(=C\c2ccc3nccnc3c2)S1`, for which the residual activity amounted to 104%.
Still for that read-out and setting: the result for `CC(C)c1nn(-c2c(Cl)cccc2Cl)c2nc(Cc3ccc(OCCO)cc3)nc(O)c12` reads 86.6%; that for `CN([C@@H](Cc1ccc(OS(=O)(=O)c2cccc3cnccc23)cc1)C(=O)N1CCN(c2ccccc2)CC1)S(=O)(=O)c1cccc2cnccc12`, 106%.

Another test has as its target MAP2K2 (human) (UniProt P36507). The description is as above. Particulars: compound 0.5 µM; ATP 10 µM.
For the molecule `O=C1NC(=O)/C(=C\c2ccc3nccnc3c2)S1`, the residual activity amounted to 93.5%.
With `CC(C)c1nn(-c2c(Cl)cccc2Cl)c2nc(Cc3ccc(OCCO)cc3)nc(O)c12`, the residual activity was 98.5%.
Consider `CN([C@@H](Cc1ccc(OS(=O)(=O)c2cccc3cnccc23)cc1)C(=O)N1CCN(c2ccccc2)CC1)S(=O)(=O)c1cccc2cnccc12`, for which the residual activity came out at 119%.

A further test addresses NUAK2 (human) (UniProt Q9H093). The description is as above. The following applies: compound 0.5 µM; ATP 10 µM.
As for `O=C1NC(=O)/C(=C\c2ccc3nccnc3c2)S1`, the residual activity was 76%.
Turning to `CC(C)c1nn(-c2c(Cl)cccc2Cl)c2nc(Cc3ccc(OCCO)cc3)nc(O)c12`, the residual activity amounted to 91.7%.
The same measure, in the same setting: the result for `CN([C@@H](Cc1ccc(OS(=O)(=O)c2cccc3cnccc23)cc1)C(=O)N1CCN(c2ccccc2)CC1)S(=O)(=O)c1cccc2cnccc12` reads 88.7%.

The target in a further test is SRPK3 (human) (UniProt Q9UPE1). Described as above. The following applies: compound 0.5 µM; ATP 10 µM.
Chain of SRPK3 (human) (Q9UPE1 whole entry, looked up): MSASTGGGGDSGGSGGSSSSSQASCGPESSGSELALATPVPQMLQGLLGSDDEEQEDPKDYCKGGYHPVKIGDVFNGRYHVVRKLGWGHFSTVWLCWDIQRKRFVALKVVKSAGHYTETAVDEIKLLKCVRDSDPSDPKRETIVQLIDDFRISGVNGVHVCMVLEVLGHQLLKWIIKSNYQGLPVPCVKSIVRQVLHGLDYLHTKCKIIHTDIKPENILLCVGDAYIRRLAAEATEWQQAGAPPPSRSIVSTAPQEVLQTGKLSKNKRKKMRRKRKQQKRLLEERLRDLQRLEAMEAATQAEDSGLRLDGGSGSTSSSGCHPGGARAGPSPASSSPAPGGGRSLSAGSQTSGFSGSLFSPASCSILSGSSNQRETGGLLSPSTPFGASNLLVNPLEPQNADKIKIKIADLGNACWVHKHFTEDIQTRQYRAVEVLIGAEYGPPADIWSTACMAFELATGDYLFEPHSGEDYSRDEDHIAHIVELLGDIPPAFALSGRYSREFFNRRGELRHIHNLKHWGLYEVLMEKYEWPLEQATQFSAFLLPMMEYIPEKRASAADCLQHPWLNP
Turning to `O=C1NC(=O)/C(=C\c2ccc3nccnc3c2)S1`, the residual activity was 91.4%.
On the same count and under the same terms, under `CC(C)c1nn(-c2c(Cl)cccc2Cl)c2nc(Cc3ccc(OCCO)cc3)nc(O)c12` stands 92.9%; under `CN([C@@H](Cc1ccc(OS(=O)(=O)c2cccc3cnccc23)cc1)C(=O)N1CCN(c2ccccc2)CC1)S(=O)(=O)c1cccc2cnccc12`, 98%.
